Earlier results as cited in patent publication US12594238B2, “Low hygroscopicity active powder compositions” (PHILIP MORRIS PRODUCTS S.A., priority 2020, dated 2026).

Conditions: at 25° C.

solubility: 69 g/100 ml water
Structure (SMILES): OC[C@H]1O[C@H](O[C@H]2O[C@H](CO)[C@@H](O)[C@H](O)[C@H]2O)[C@H](O)[C@@H](O)[C@@H]1O [trehalose]
